Source: patent publication US10934351B2, “Cancer stem cell-specific molecule” (CHUGAI SEIYAKU KABUSHIKI KAISHA, priority 2011, dated 2021)

B1: CD70 (protein, listed as Homo sapiens)
chain: MPEEGSGCSVRRRPYGCVLRAALVPLVAGLVICLVVCIQRFAQAQQQLPLESLGWDVAELQLNHTGPQQDPRLYWQGGPALGRSFLHGPELDKGQLRIHRDGIYMVHIQVTLAICSSTTASRHHPTTLAVGICSPASRSISLLRLSFHQGCTIASQRLTPLARGDTLCTNLTGTLLPSRNTDETFFGVQWVRP
B2: EDAR (protein, listed as Homo sapiens)
chain: MAHVGDCTQTPWLPVLVVSLMCSARAEYSNCGENEYYNQTTGLCQECPPCGPGEEPYLSCGYGTKDEDYGCVPCPAEKFSKGGYQICRRHKDCEGFFRATVLTPGDMENDAECGPCLPGYYMLENRPRNIYGMVCYSCLLAPPNTKECVGATSGASANFPGTSGSSTLSPFQHAHKELSGQGHLATALIIAMSTIFIMAIAIVLIIMFYILKTKPSAPACCTSHPGKSVEAQVSKDEEKKEAPDNVVMFSEKDEFEKLTATPAKPTKSENDASSENEQLLSRSVDSDEEPAPDKQGSPELCLLSLVHLAREKSATSNKSAGIQSRRKKILDVYANVCGVVEGLSPTELPFDCLEKTSRMLSSTYNSEKAVVKTWRHLAESFGLKRDEIGGMTDGMQLFDRISTAGYSIPELLTKLVQIERLDAVESLCADILEWAGVVPPASQPHAAS

Experiments:
[1] = system: Lgr5-positive large intestine CSCs; assay: Change in Lgr5 expression of Lgr5-positive CSCs after chemotherapeutic treatment (flow cytometry / immunocytochemistry); type: cell-based, human; conditions: for Lgr5 state of drug-resistant cells arising from Lgr5-positive CSCs: three-day exposure, 10 μg/ml (FIGS. 11, 32, 25)
Experimental: Large intestine CSCs were incubated with mouse anti-human Lgr5 antibody (2T15E-2) and then with […] rat anti-mouse IgG antibody (Invitrogen) to stain Lgr5. The aldehyde dehydrogenase activity was measured using the AldeFluor Kit (Stemcell Technologies). Mouse cells were discriminated from human large intestine CSCs by staining with anti-mouse MHC class I antibody (Abcam), and PE- or APC-labeled goat […] IgG2a antibody (BioLegend). Dead cells were also removed using the 7-AAD Viability Dye (Beckman Coulter).
In addition, to assess whether Lgr5-negative large intestine CSCs undergo a transition into an Lgr5-positive state, the present inventors cultured adherently Lgr5-negative large intestine CSCs prepared via irinotecan treatment again in a serum-free stem cell culture medium. […] On the other hand, when Lgr5-positive adherent large intestine CSCs were cultured in an ultra-low adherent plate, the present inventors observed that some of the cells halted their growth and formed a spheroid-like structure and that the Lgr5 mRNA level was very low (FIGS. 12 and 33). The transition from the Lgr5-positive to Lgr5-negative state (and the reverse) was also confirmed by observations using a single cell in culture. […]
Using a stem cell medium, Lgr5-positive adherent cells were seeded at 3×10^5 cells/well in a 6-well plate (BD, Cat. No. 353046). […] After three-day culture, irinotecan-resistant cells were detected. […]
FITC-labeled mouse mAb to human CD326 (EpCAM), PE-labeled mouse mAb to human CD133/1 (AC133), PE-labeled mouse mAb to human CD44, PE-labeled mouse mAb to human CD166, PE-labeled mouse mAb to human CD24, PE-labeled mouse mAb to human CD26, or PE-labeled mouse mAb to human CD29. […] The ALDH activity was detected using AldeFluor Kit according to the procedure recommended by the manufacturer. […] Cells negative for 7-AAD Viability Dye were analyzed for cancer stem cell markers.

[2] = system: Lgr5-positive large intestine CSCs; assay: Cell proliferation / chemosensitivity assay (Cell Counting Kit-8), adherent CSCs; type: cell-based, human
Experimental: (§1) Floating and adherent CSCs were plated at about 100 and 1×10^4 cells/well in 96-well plates, respectively. On days 0 and 3, viable cell counts were determined by the Cell Counting Kit-8 Assay (Doujindo) according to the manufacturer's protocol. Average absorbance on day 0 was taken as 100%. For chemosensitivity assay, floating and adherent CSCs were plated at about 100 and 1×10^4 cells/well in 96-well plates, respectively. […] After three days of culture in the presence of the agents, the Cell Counting Kit-8 was added to the cells. The average absorbance of cells exposed to DMSO or medium alone was taken as 100%. All experiments were performed in triplicate.

[3] = system: Lgr5-negative large intestine CSCs; assay: Cell proliferation / chemosensitivity assay (Cell Counting Kit-8), Lgr5-negative CSCs; type: cell-based, human; conditions: for proliferation and survival of Lgr5-negative large intestine CSCs: 10 μg/ml, three days (FIGS. 10 and 24); for percentage of viable cells relative to non-treated control cells: Lgr5-negative CSCs (PLR59 and PLR123), three days, concentration series (FIG. 47)
Experimental: as §1

[4] = system: tumors derived from Lgr5-positive CSCs (PLR123); assay: Irinotecan treatment of NOG mice bearing tumors derived from Lgr5-positive CSCs; type: in vivo
Experimental: Mice bearing tumors derived from Lgr5-positive CSCs (PLR123) were treated with irinotecan, and their tumors were observed. Irinotecan or vehicle was administered to mice at days 12, 15, and 18 after tumor grafting. Scale bar represents 25 μm.
FIG. 55 Irinotecan was administered at a dose of 120 mg/kg/day to NOG mice at days 12, 15, and 18 after grafting tumors derived from Lgr5-positive CSCs (PLR123). This figure is a graph showing tumor volumes in control mice administered with vehicle (closed diamond) and mice administered with irinotecan (closed square or triangle). Each value represents mean+standard deviation.
FIG. 56 is a graph showing the numbers of Lgr5-positive and HLA-DMA-positive cells in xenograft tumor tissues. Thin sections of tissues were treated with Lgr5 antibody and HLA-DMA antibody, and then the numbers of Lgr5-positive and HLA-DMA-positive cells were measured. Values represent the total numbers of cells counted for respective groups (n=3).
To probe the possibility of in vivo transition to a growth inhibitor-resistant state, irinotecan was administered at the maximum tolerated dose (MTD) (120 mg/kg) into the peritoneal cavities of NOG mice bearing tumors derived from Lgr5-positive CSCs. […] By contrast, in vehicle-treated control mice, about one third of cancer cells were positive for Lgr5 in both ductal and budding areas (FIG. 54). Both Lgr5-positive cells and HLA-DMA-positive and Lgr5-negative cells were positive for EREG, and were identified to be CSCs (FIG. 54). After irinotecan treatment, Lgr5-positive cells appeared again (FIG. 54).

[5] = system: irinotecan-non-treated PLR123; assay: Flow cytometry (FCM) binding activity of commercially available antibodies to cell-surface antigens; design: species or system human; conditions: with antibody
Experimental: (§2) The present inventors tested whether an anti-tumor effect can be expected with target therapy using a membrane protein expressed at a high level as the target in irinotecan-treated or non-treated PLR59 and PLR123. Commercially available antibodies shown in Table 12 were assessed by flow cytometry (FCM) for the binding activity to antigens expressed on the cell surface of irinotecan-treated or non-treated PLR59 or PLR123.

[6] = system: irinotecan-non-treated PLR59; assay: as above; design: species or system human; conditions: with antibody
Experimental: as §2

[7] = system: irinotecan-non-treated PLR123; assay: Internalization activity / anti-tumor effect with Mab-ZAP or Rat-ZAP (CellTiter-Glo); type: cell-based, human; conditions: with Mab-ZAP or Rat-ZAP 1 μg/ml, 72 hours
Experimental: (§3) Mab-ZAP and Rat-ZAP are anti-mouse IgG antibody and anti-rat IgG antibody, respectively, conjugated with saporin, a toxin that inhibits protein synthesis (Advanced Targeting Systems). To assess the activity of internalization into irinotecan-non-treated cells, PLR59 and PLR123 cells were seeded at a cell density of 30000 cells/80 μl/well to respective wells of a 96-well plate. Following day, each antibody solution was added at a final concentration of 0.01, 0.1, or 1 μg/ml to the respective wells. Then, Mab-ZAP or Rat-ZAP was added at a final concentration 1 μg/ml to the respective wells, and the plate was incubated at 37° C. for 72 hours in a CO2 incubator. To assess the activity of internalization into irinotecan-treated cells, PLR59 and PLR123 cells were seeded in a 96-well plate, and irinotecan was added at a final concentration of 15 μM to each well. The plate was incubated at 37° C. for 72 hours in a CO2 incubator. Various antibodies were assessed for the activity of internalization to cells cultured as described above in the presence or absence of irinotecan. For assay, the various antibodies were each assessed for the internalization activity into cells contained in each well where the medium was replaced with the same irinotecan-free medium as used for irinotecan-non-treated cells. Seventy-two hours after addition of antibodies and Mab-ZAP or Rat-ZAP, 10 μl of 3% SDS (Nacalai Tesque) was added to each well of the plate. The cells in the plate were lysed thoroughly by stirring the plate using a plate mixer. Then, 100 μl of CellTiter-Glo™ Luminescent Cell Viability Assay (Promega) was added to each well. The mixture in each well was assayed to determine its luminescent signal. […] In Table 14, symbols, −, +, ++, and +++, represent relative values for the internalization activity when a test antibody was assayed at a concentration of […]. […] Symbols, −, +, ++, and +++, indicate that the relative value is less than 5%, 5% or more and less than 15%, 15% or more and less than 25%, and 25% or more, respectively.

[8] = system: irinotecan-non-treated PLR59; assay: as above; type: cell-based, human; conditions: with Mab-ZAP or Rat-ZAP 1 μg/ml, 72 hours
Experimental: as §3

[9] = 10 μg/ml, three days (FIGS. 10 and 24)
[10] = 120 mg/kg irinotecan (FIGS. 54 and 56)

Row | Molecule | Lgr5 state of drug-resistant cells arising from Lgr5-positive CSCs [1] | proliferation of Lgr5-positive large intestine CSCs [2, 9] | proliferation and survival of Lgr5-negative large intestine CSCs [3] | percentage of viable cells relative to non-treated control cells [3] | binding activity by flow cytometry (FCM), Antibody + [5] | binding activity by flow cytometry (FCM), Antibody + [6] | internalization activity level [7] | internalization activity level [8] | other results
1 | O=c1[nH]cc(F)c(=O)[nH]1 [5-FU, fluorouracil] | negative for Lgr5 | significantly inhibited | did not affect | fully resistant | – | – | – | – | –
2 | CCc1c2c(nc3ccc(OC(=O)N4CCC(N5CCCCC5)CC4)cc13)-c1cc3c(c(=O)n1C2)COC(=O)[C@]3(O)CC [irinotecan] | negative for Lgr5 | significantly inhibited | did not affect | fully resistant | – | – | – | – | transition of single Lgr5-positive cells into the Lgr5-negative state ([1]; single cells cultured in multi-well plate, irinotecan treatment, within three days (FIG. 49, Table 5)): underwent a transition into the Lgr5-negative state; tumor growth ([4]; 120 mg/kg (MTD) into the peritoneal cavities, days 12, 15, 18 after grafting (FIG. 55)): inhibited almost completely; Lgr5-positive cells in tumor [4, 10]: dramatic decrease; number of Lgr5-negative and HLA-DMA-positive cells in tumor [4, 10]: increased significantly
3 | Cc1cc([N+](=O)[O-])ccc1NS(=O)(=O)c1cc(Cl)ccc1Cl [FH535] | – | – | – | – | – | – | – | – | proliferation of Lgr5-positive large intestine CSCs ([2]; 50 μM, three days of culture, PLR59 and PLR123 (FIGS. 8 and 22)): significantly reduced; proliferation of Lgr5-negative large intestine CSCs ([3]; 50 μM, three days of culture (FIGS. 8 and 22)): had no effect
4 | COc1cc(O)cc(O)c1C(=O)/C=C/c1ccccc1 [cardamonin] | – | – | – | – | – | – | – | – | viable cell count ([2]; 50 μM, three days of culture, Lgr5-positive CSCs (FIGS. 8 and 22)): 70%; viable cell count ([3]; 50 μM, three days of culture, Lgr5-negative CSCs (FIGS. 8 and 22)): about 50%
5 | B1 | – | – | – | – | 1843 | 1177 | +++ (25% or more) | +++ (25% or more) | –
6 | B2 | – | – | – | – | 61 | 37 | − (less than 5%) | ++ (15% or more and less than 25%) | –
